Like-named read-outs stand apart in the source and are kept apart here.
What was measured:
[1] = test system: HUVEC cells; test: EF-induced reorientation of endothelial cells (orientation index Oi); format: cell-based, human
Protocol: A series of images was taken with an image analyser immediately before EF exposure and at 4, 8 and 24 hours of EF exposure. Cell orientation was quantified as an orientation index (Oi), which is defined as Oi=cos 2(α), where a is the angle formed by the long axis of a cell with a line drawn perpendicular to the field lines. A cell with its long axis parallel to the vector of the EF will have an Oi of −1, and a cell with its long axis exactly perpendicular to the EF vector will have an Oi of +1. A randomly oriented population of cells will have an average Oi {defined as [Σn cos 2(α)]÷n} of 0. The significance of this two-dimensional orientation distribution against randomness was calculated using Rayleigh's distribution. A long:short axis ratio was calculated for assessment of elongation.
Cell alignment was quantified using an orientation index Oi=cos 2(α), where α is the angle formed between the long axis of a cell and a line drawn perpendicular to the field lines. In cells oriented perpendicular to the field vector, the Oi is +1, cells parallel to the field vector give an Oi of −1 and random orientation gives an Oi of 0.

[2] = test system: HUVEC cells; test: EF-induced elongation of endothelial cells (long:short axis ratio); format: cell-based, human; settings: for long:short axis ratio in EF-treated cells: inhibitor present during EF
Protocol: HUVEC cells were seeded in a trough formed by two parallel (1 cm apart) strips of glass coverslip (No. 1, length of 22 mm) fixed to the base of the dish with silicone grease. Scratch lines were made perpendicular to the long axis of the chamber with a fine sterile needle and used as reference marks for directed cell migration. Cells were incubated for 24-48 hours (37° C., 5% CO2) before a roof coverslip was applied and sealed with silicone grease. The final dimensions of the chamber, through which current was passed, were 22×10×0.2 mm. Agar-salt bridges not less than 15 cm long were used to connect silver/silver-chloride electrodes in beakers of Steinberg's solution (58 mM NaCl, 0.67 mM KCl, 0.44 mM Ca(NO3)2, 1.3 mM MgSO4, 4.6 mM Trizma base, pH 7.8-8.0), to pools of excess culture medium at either side of the chamber. Field strengths were measured directly at the beginning of, the end of and during each experiment. No fluctuations in field strength were observed. […] (50 μM), the Rho kinase inhibitor Y27632 (50 μM), both Akt and Rho kinase inhibitors (10 μM each) or latrunculin (50 nM) for 1 hour before EF stimulation. The same concentration of drug was present during EF exposure in a CO2 incubator.
A series of images was taken with an image analyser immediately before EF exposure and at 4, 8 and 24 hours of EF exposure. Cell orientation was quantified as an orientation index (Oi), which is defined as Oi=cos 2(α), where a is the angle formed by the long axis of a cell with a line drawn perpendicular to the field lines. A cell with its long axis parallel to the vector of the EF will have an Oi of −1, and a cell with its long axis exactly perpendicular to the EF vector will have an Oi of +1. […] The significance of this two-dimensional orientation distribution against randomness was calculated using Rayleigh's distribution. A long:short axis ratio was calculated for assessment of elongation.
HUVEC cells elongated dramatically in an EF. […] We quantified the elongation of the cells using a long:short axis ratio. […]

[3] = test system: HaCaT human keratinocytes; test: scratch assay, keratinocyte migration (culture inserts, time-lapse microscopy); format: cell-based

In the case of `N#CC(=C(/N)Sc1ccccc1N)/C(C#N)=C(\N)Sc1ccccc1N` [U0126], the orientation response [1] is reported as “decreased the orientation to a similar extent”.
In the case of “1-L-6-hydroxymethyl-chiro-inositol 2-[(R)-2-O-methyl-3-O-octadecylcarbonate] [Akt inhibitor]”, the “long:short axis ratio in EF-treated cells” value [2] is reported as “significantly decreased the long:short axis ratio” and the orientation response ([1]; inhibitor 50 μM, 1 hour before and during EF) is reported as “significantly decreased the orientation response”.
`C[C@@H](N)[C@H]1CC[C@H](C(=O)Nc2ccncc2)CC1` [Y27632] was tested, and the “long:short axis ratio in EF-treated cells” value [2] was “significantly decreased the long:short axis ratio” and the “Oi (orientation index)” value ([1]; value in the sentence on U0126 (50 μM)) was 0.33±0.03.
In the case of `CC(=O)N[C@@H](CS)C(=O)O` [N-Acetyl Cysteine], the “increased migration observed with LLEC, with N-Acetyl Cysteine” value ([3]; 5 mM, 1 h pretreatment before scratch assay) is reported as “failed to reproduce the increased migration”.
`C/C1=C/C(=O)O[C@@H]2C[C@@H](CC[C@H](C)/C=C\C=C\CC1)O[C@@](O)([C@@H]1CSC(=O)N1)C2` [Latrunculin A] was tested, and the EF-induced elongation response ([2]; latrunculin 50 nM) was “completely abolished” and the orientation response ([1]; latrunculin 50 nM, 1 hour before and during EF) was “suppressed the orientation response significantly”.
In the case of `COc1cc([C@@H]2c3cc4c(cc3[C@H](O)[C@H]3COC(=O)[C@@H]23)OCO4)cc(OC)c1OC` [IGF-1R inhibitor, picropodophyllin], the “increased keratinocyte migration observed with LLEC, with IGF-1R inhibitor” value ([3]; 50 nM picropodophyllin just prior to scratch assay) is reported as “attenuated the increased keratinocyte migration”.
